Target: T1, β2GPI (Homo sapiens, UniProt P02749)
T1 sequence (P02749 20-345): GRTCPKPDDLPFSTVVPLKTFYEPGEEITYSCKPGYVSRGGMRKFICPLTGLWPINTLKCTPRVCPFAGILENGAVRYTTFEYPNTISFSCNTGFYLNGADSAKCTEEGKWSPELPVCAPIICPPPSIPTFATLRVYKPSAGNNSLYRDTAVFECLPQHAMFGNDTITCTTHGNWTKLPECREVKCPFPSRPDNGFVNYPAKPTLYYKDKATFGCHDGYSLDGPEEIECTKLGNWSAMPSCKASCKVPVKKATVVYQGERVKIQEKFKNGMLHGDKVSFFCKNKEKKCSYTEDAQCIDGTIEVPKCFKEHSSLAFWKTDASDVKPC
Assay: Surface plasmon resonance
Assay type: binding
Details: inferred from extremely fast dissociation; 0.005% PBST pH 7.4, 25°C

KVWTIPRGGGS
Affinity towards β2GPI indicated by dissociation (SPR): low affinity towards β2GPI
